Here are results for four compounds from ChEMBL document CHEMBL1201862, “PubChem BioAssay data set” (2004).

Among the test systems are SK-MEL-28; RXF 393; SK-MEL-2; SF-295; HCC 2998; M14; ACHN; A498; SR; SN12C; HCT-15; CCRF-CEM; SK-OV-3; COLO 205; A549; CAKI-1; KM12; SF-539.
Assay in all cases: DTP human tumour cell line panel, 48 h

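All cell lines were grown in 96-well plates and treated with compound for 48 hours. At the GI50, growth is halved.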 Calls of active or inactive are those of the source. Cut-off read from the data, not from the text of the source: active = GI50 up to about 1.1 µM and inactive = higher. Where only a bound is given, the exact number is not on record here.

As to `COC(=O)C(=O)C(C#N)c1cccc(Cl)c1` (stereo not given), the GI50 with SK-MEL-28, in the test with RXF 393, with SK-MEL-2, in the test with SF-295, in the test on HCC 2998 and with M14 was > 100 µM (inactive) each time. The GI50 in the test with ACHN was > 100 µM (inactive); in the test with A498 it was > 100 µM (inactive); with SR it was > 100 µM (inactive); in the test on SN12C, > 100 µM (inactive); in the test with HCT-15, above 100 µM; with CCRF-CEM it was > 100 µM (inactive). The GI50 in the test on SK-OV-3, in the test on COLO 205, in the test with A549, with CAKI-1, in the test on KM12 and in the test with SF-539 was > 100 µM (inactive) each time.
Turning to `CCOC(=O)c1c[nH]c2c(ccc3ncccc32)c1=O`, the GI50 in the test with SK-MEL-28, with RXF 393, in the test with SK-MEL-2, in the test on HCC 2998, with M14 and in the test on ACHN was > 100 µM (inactive) in each case. Moreover, the GI50 was > 100 µM (inactive) in the test on A498; > 100 µM (inactive) in the test with SR; > 100 µM (inactive) in the test with SN12C; above 100 µM in the test with HCT-15; > 100 µM (inactive) with CCRF-CEM; > 100 µM (inactive) in the test with SK-OV-3. Further, the GI50 in the test with COLO 205, in the test on A549, in the test on KM12 and in the test with SF-539 was > 100 µM (inactive) throughout.
On to `C[C@]12CC[C@H](O)CC1=CC[C@@H]1C2CC[C@]2(C)C(=O)N(N)C(=O)CC12` (stereo not given in full), for which the GI50 with SK-MEL-28, with RXF 393, with SK-MEL-2, in the test on SF-295, with HCC 2998 and with M14 was > 100 µM (inactive) each time. The GI50 in the test with ACHN was > 100 µM (inactive); in the test with A498 it was > 100 µM (inactive); in the test on SR it was > 100 µM (inactive); in the test on SN12C it was > 100 µM (inactive); in the test on HCT-15, above 100 µM; with CCRF-CEM, > 100 µM (inactive). Also, the GI50 with SK-OV-3, in the test on COLO 205, in the test on A549, with CAKI-1, in the test with KM12 and with SF-539 was > 100 µM (inactive) in each case.
Turning to `CN(C)c1nc(N(C)C)nc(N(C)CN(C)c2nc(N(C)C)nc(N(C)C)n2)n1`, the GI50 in the test on SK-MEL-28, in the test on RXF 393, with SK-MEL-2, in the test with SF-295, in the test with HCC 2998 and in the test on M14 was > 100 µM (inactive) throughout. Besides, the GI50 with ACHN is > 100 µM (inactive); with A498, > 100 µM (inactive); in the test on SR it was > 100 µM (inactive); in the test on SN12C, > 100 µM (inactive); in the test with HCT-15, above 100 µM; in the test with CCRF-CEM, > 100 µM (inactive). The GI50 in the test on SK-OV-3, in the test with COLO 205, with A549, with CAKI-1, in the test with KM12 and in the test on SF-539 was > 100 µM (inactive) throughout.
